Source: patent US20240425523A1, “Compounds for the Degradation of EGFR Kinase” (Beigene Switzerland GMBH, priority 2023, published 2024)

Key:
Format in all cases: cell-based
[1] = target: T1, EGFR L858R (BaF3-L858R cells) (Homo sapiens, UniProt P00533, L858R); assay: Cell degradation of EGFR, HTRF assay, BaF3-L858R cells; settings: 16 h treatment; for DC50: EGFR degradation; for Dmax: maximum percentage of degradation
T1 construct: host or cells: BaF3
Summary of the method: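 BaF3-L858R cells treated 16 h at 37° C, 5% CO2 with compound (top 10 uM final, 5-fold, 8 doses, 0.1% DMSO). DC50 from four-parameter fit; Dmax is maximum percent degradation.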

[2] = target: T2, EGFR-L858R/C797S (H1975-clone #8 cells) (Homo sapiens, UniProt P00533, C797S/L858R); assay: Cell degradation of EGFR, HTRF assay, H1975-clone#8 (L858R/C797S) cells; settings: 16 h treatment; for DC50: EGFR degradation; for Dmax: maximum percentage of degradation
T2 construct: expressed in transfected cells; host or cells: H1975 (endogenous EGFR knocked out, clone #8)

[3] = target: T3, p-EGFR L858R (BaF3-L858R cells) (Homo sapiens, UniProt P00533, L858R); assay: Cell p-EGFR inhibition assay, HTRF, BaF3-L858R cells; settings: 16 h treatment; for Imax (%): maximum percentage of pEGFR inhibition; for IC50: pEGFR inhibition
T3 construct: host or cells: BaF3
Summary of the method: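 BaF3-L858R cells treated 16 h at 37 °C, 5% CO2 with compound from 10 uM top, 5-fold dilutions, 8 doses, in 0.1% DMSO medium. Lysates read overnight by HTRF p-EGFR antibodies; IC50 fitted to four-parameter curve against DMSO high control.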

[4] = target: p-EGFR Del19/C797S (H1975-clone #23 cells) (Homo sapiens, UniProt P00533); assay: Cell p-EGFR inhibition assay, HTRF, H1975-clone#23 (DEL19/C797S) cells; settings: 16 h treatment; for Imax (%): maximum percentage of pEGFR inhibition; for IC50: pEGFR inhibition
Summary of the method: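 Phospho-EGFR read by overnight HTRF on lysates, normalized to DMSO-treated high control; IC50, Hill slope and Imax fitted. Compounds were applied for 16 h (10 uM top, 5-fold steps, 8 doses) to an H1975 single clone carrying only exogenous Del19/C797S EGFR after sgRNA knockout of endogenous copies.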

Compound | DC50 [1] [nM] | Dmax [1] [%] | DC50 [2] [nM] | Dmax [2] [%] | Imax (%) [3] [%] | IC50 [3] [nM] | Imax (%) [4] [%] | IC50 [4] [nM]
Cc1cc2cc(n1)-c1c(C(F)F)nn(C)c1OC[C@H]1CCC(C1)CN1/C(=N/C2=O)Nc2ccc(N3CCN(C4CCN(c5c(F)cc(NC6CCC(=O)NC6=O)cc5F)CC4)CC3)cc21 (some centres unmarked) [Example 99, 3-((4-(4-(4-((7^1R,7^3S,E)-1^3-(difluoromethyl)-1^1,2^6-dimethyl-3-oxo-5^2,5^3-dihydro-1^1H,5^1H-9-oxa-4-aza-5(2,1)-benzo[d]imidazola-2(2,4)-pyridina-1(4,5)-pyrazola-7(1,3)-cyclopentanacyclononaphane-5^6-yl)piperazin-1-yl)piperidin-1-yl)-3,5-difluorophenyl)amino)piperidine-2,6-dione] | 1.06 | 82.3 | 6 | 85.6 | 100.3 | 8 | 99.2 | 2.2
Cc1cc2cc(n1)-c1c(C)nn(C)c1OC[C@H]1CC[C@H](C1)CN1/C(=N/C2=O)Nc2ccc(N3CCN([C@H]4CCN(c5cnc(C6CCC(=O)NC6=O)cc5C)CC4(F)F)CC3)cc21 (stereo partly drawn) [Example 101, 3-(5-((S)-3,3-difluoro-4-(4-((7^1R,7^3S,E)-1^1,1^3,2^6-trimethyl-3-oxo-5^2,5^3-dihydro-1^1H,5^1H-9-oxa-4-aza-5(2,1)-benzo[d]imidazola-2(2,4)-pyridina-1(4,5)-pyrazola-7(1,3)-cyclopentanacyclononaphane-5^6-yl)piperazin-1-yl)piperidin-1-yl)-4-methylpyridin-2-yl)piperidine-2,6-dione] | 2.22 | 81.8 | 1.58 | 90.2 | 106.4 | 3.5 | 101 | 1
Cc1cc2cc(n1)-c1cnn(C)c1OC[C@H]1CCC(C1)CN1/C(=N/C2=O)Nc2ccc(N3CCN(C4CCN(c5ccc(NC6CCC(=O)NC6=O)cc5Cl)CC4)CC3)cc21 (some centres unmarked) [Example 103, 3-((3-chloro-4-(4-(4-((7^1R,7^3S,E)-1^1,2^6-dimethyl-3-oxo-5^2,5^3-dihydro-1^1H,5^1H-9-oxa-4-aza-5(2,1)-benzo[d]imidazola-2(2,4)-pyridina-1(4,5)-pyrazola-7(1,3)-cyclopentanacyclononaphane-5^6-yl)piperazin-1-yl)piperidin-1-yl)phenyl)amino)piperidine-2,6-dione] | 3.38 | 81.6 | 2.53 | 83.3 | 95.6 | 16.3 | 102 | 0.8
Cc1cc2cc(n1)-c1cnn(C)c1OC[C@H]1CCC(C1)CN1/C(=N/C2=O)Nc2ccc(N3CCN([C@@H]4CCN(c5ccc(C6CCC(=O)NC6=O)nc5C)CC4(F)F)CC3)cc21 (stereo partly drawn) [Example 105, 3-(5-((R)-4-(4-((7^1R,7^3S,E)-1^1,2^6-dimethyl-3-oxo-5^2,5^3-dihydro-1^1H,5^1H-9-oxa-4-aza-5(2,1)-benzo[d]imidazola-2(2,4)-pyridina-1(4,5)-pyrazola-7(1,3)-cyclopentanacyclononaphane-5^6-yl)piperazin-1-yl)-3,3-difluoropiperidin-1-yl)-6-methylpyridin-2-yl)piperidine-2,6-dione] | 3.68 | 82.7 | 4.09 | 85.2 | 93.9 | 10.1 | 100.1 | 0.7

The next lines start with the values.

DC50 [1] [nM] | Dmax [1] [%] | DC50 [2] [nM] | Dmax [2] [%] | Imax (%) [3] [%] | IC50 [3] [nM] | Imax (%) [4] [%] | IC50 [4] [nM] | Compound
8.5 | 86.5 | 12.1 | 79 | 99.3 | 10.8 | 101 | 4.5 | COC[C@H]1CN(c2ccc3c(c2)N2CC4CC[C@H](COc5c(c(C(F)(F)F)nn5C)-c5cc(cc(C)n5)C(=O)/N=C/2N3)C4)CCN1C1CCN(c2cc(F)c([C@H]3CCC(=O)NC3=O)c(F)c2)CC1 [Example 95, (R)-3-(4-(4-((R)-4-((7^1R,7^3S,E)-1^1,2^6-dimethyl-3-oxo-1^3-(trifluoromethyl)-5^2,5^3-dihydro-1^1H,5^1H-9-oxa-4-aza-5(2,1)-benzo[d]imidazola-2(2,4)-pyridina-1(4,5)-pyrazola-7(1,3)-cyclopentanacyclononaphane-5^6-yl)-2-(methoxymethyl)piperazin-1-yl)piperidin-1-yl)-2,6-difluorophenyl)piperidine-2,6-dione]
3.41 | 86.6 | 3.15 | 82.7 | 100.3 | 6.3 | 100.9 | 0.8 | COC[C@@H]1CN(c2cc3c(cc2C)N/C2=N\C(=O)c4cc(C)nc(c4)-c4cnn(C)c4OC[C@H]4CC[C@H](C4)CN23)CCN1C1CCN(c2cc(F)c([C@H]3CCC(=O)NC3=O)c(F)c2)CC1 [Example 96, (R)-3-(2,6-difluoro-4-(4-((S)-2-(methoxymethyl)-4-((7R,7^3S,E)-1^1,2^6,5^5-trimethyl-3-oxo-5^2,5^3-dihydro-1^1H,5^1H-9-oxa-4-aza-5(2,1)-benzo[d]imidazola-2(2,4)-pyridina-1(4,5)-pyrazola-7(1,3)-cyclopentanacyclononaphane-5^6-yl)piperazin-1-yl)piperidin-1-yl)phenyl)piperidine-2,6-dione]
2.6 | 80.6 | 2.49 | 75 | 110.3 | 4.7 | 101.3 | 1.4 | Cc1cc2cc(n1)-c1cnn(C)c1OC[C@H]1CCC(C1)CN1/C(=N/C2=O)Nc2ccc(N3CCN(C4CCN(c5ccc(NC6CCC(=O)NC6=O)nc5C)CC4)CC3)cc21 (some centres unmarked) [Example 98, 3-((5-(4-(4-((7^1R,7^3S,E)-1^1,2^6-dimethyl-3-oxo-5^2,5^3-dihydro-1^1H,5^1H-9-oxa-4-aza-5(2,1)-benzo[d]imidazola-2(2,4)-pyridina-1(4,5)-pyrazola-7(1,3)-cyclopentanacyclononaphane-5^6-yl)piperazin-1-yl)piperidin-1-yl)-6-methylpyridin-2-yl)amino)piperidine-2,6-dione]
3.34 | 72.3 | 3.07 | 87.3 | 107.3 | 6.7 | 101 | 0.5 | Cc1cc2cc(n1)-c1cnn(C)c1OC[C@H]1CCC(C1)CN1/C(=N/C2=O)Nc2cc(F)c(N3CCN(C4CCN(c5cnc(C6CCC(=O)NC6=O)cc5C)CC4)CC3)cc21 (some centres unmarked) [Example 100, 3-(5-(4-(4-((7^1R,7^3S,E)-5^5-fluoro-1^1,2^6-dimethyl-3-oxo-5^2,5^3-dihydro-1^1H,5^1H-9-oxa-4-aza-5(2,1)-benzo[d]imidazola-2(2,4)-pyridina-1(4,5)-pyrazola-7(1,3)-cyclopentanacyclononaphane-5^6-yl)piperazin-1-yl)piperidin-1-yl)-4-methylpyridin-2-yl)piperidine-2,6-dione]
0.59 | 85.8 | 0.76 | 91.5 | 95 | 1.5 | 100.5 | 0.6 | Cc1cc2cc(n1)-c1cnn(C)c1OC[C@H]1CCC(C1)CN1/C(=N/C2=O)Nc2cc(C)c(N3CCN([C@@H]4CCN(c5ccc(C6CCC(=O)NC6=O)nc5C)C[C@@H]4F)CC3)cc21 (stereo partly drawn) [Example 102, 3-(5-((3S,4R)-3-fluoro-4-(4-((7^1R,7^3S,E)-1^1,2^6,5^5-trimethyl-3-oxo-5^2,5^3-dihydro-1^1H,5^1H-9-oxa-4-aza-5(2,1)-benzo[d]imidazola-2(2,4)-pyridina-1(4,5)-pyrazola-7(1,3)-cyclopentanacyclononaphane-5^6-yl)piperazin-1-yl)piperidin-1-yl)-6-methylpyridin-2-yl)piperidine-2,6-dione]
4.1 | 83.2 | 3.7 | 86.9 | 95 | 4.4 | 100.5 | 2 | COC[C@H]1CN(c2ccc3c(c2)N2CC4CC[C@H](COc5c(c(C(F)F)nn5C)-c5cc(cc(C)n5)C(=O)/N=C/2N3)C4)CCN1C1CCN(c2cc(F)c([C@H]3CCC(=O)NC3=O)c(F)c2)CC1 [Example 104, (R)-3-(4-(4-((R)-4-((7^1R,7^3S,E)-1^3-(difluoromethyl)-1^1,2^6-dimethyl-3-oxo-5^2,5^3-dihydro-1^1H,5^1H-9-oxa-4-aza-5(2,1)-benzo[d]imidazola-2(2,4)-pyridina-1(4,5)-pyrazola-7(1,3)-cyclopentanacyclononaphane-5^6-yl)-2-(methoxymethyl)piperazin-1-yl)piperidin-1-yl)-2,6-difluorophenyl)piperidine-2,6-dione]
